In brackets after ≈: the same amount, converted by molar mass.
Key:
Assay type in all cases: cell-based
S. aureus MP-12 = assay: Broth dilution MIC determination (CLSI), S. aureus MP-12; conditions: strain MP-12, broth dilution; for MIC: Staphylococcus aureus, MP12
P. aeruginosa MP-3 = assay: Broth dilution MIC determination (CLSI), P. aeruginosa MP-3; conditions: strain MP-3, broth dilution; for MIC: Pseudomonas aeruginosa, MP3
A. baumannii MP-15 = assay: Broth dilution MIC determination (CLSI), A. baumannii MP-15; conditions: strain MP-15, broth dilution; for MIC: Acinetobacter baumannii, MP15, read-out: MIC A. baumanii MP-15
K. pneumoniae MP-546 = assay: Broth dilution MIC determination (CLSI), K. pneumoniae MP-546; conditions: strain MP-546, broth dilution; for MIC: Klebsiella pneumoniae, MP546
K. pneumoniae MP-648 = assay: Broth dilution MIC determination (CLSI), K. pneumoniae MP-648; conditions: strain MP-648, broth dilution; for MIC: Klebsiella pneumoniae, MP648
E. coli MP-4 = assay: Broth dilution MIC determination (CLSI), E. coli MP-4; conditions: strain MP-4, broth dilution; for MIC: Escherichia coli, MP4, read-out: MIC E. coli MP-4

MIC (S. aureus MP-12) | MIC (P. aeruginosa MP-3) | MIC (A. baumannii MP-15) | MIC (K. pneumoniae MP-546) | MIC (K. pneumoniae MP-648) | MIC (E. coli MP-4) | MIC S. aureus MP-12 (S. aureus MP-12) | MIC P aeruginosa MP-3 (P. aeruginosa MP-3) | MIC A. baumanii MP-15 (A. baumannii MP-15) | SMILES | MIC K. pneumoniae MP-546 (K. pneumoniae MP-546) | MIC K. pneumoniae MP-648 (K. pneumoniae MP-648) | MIC E. coli MP-4 (E. coli MP-4)
4 to 32 µg/mL (≈ 5.43 to 43.4 µM) | > 32 µg/mL | > 32 µg/mL | < 4 µg/mL | 4 to 32 µg/mL (≈ 5.43 to 43.4 µM) | < 4 µg/mL |  |  |  | CO[C@]1(C)C[C@@H](C)CN(C)[C@H](C2CN(C(=O)CC(C)(C)CN(C)CC3CC3)C2)COC(=O)C(C)(C)C(=O)[C@H](C)[C@H]1O[C@@H]1O[C@H](C)C[C@H](N(C)C)[C@H]1O [Compound 25, (3R,6R,8R,9R,10R)-3-(1-(4-((cyclopropylmethyl)(methyl)amino)-3,3-dimethylbutanoyl)azetidin-3-yl)-9-(((2S,3R,4S,6R)-4-(dimethylamino)-3-hydroxy-6-methyltetrahydro-2H-pyran-2-yl)oxy)-8-methoxy-4,6,8,10,12,12-hexamethyl-1-oxa-4-azacyclotridecane-11,13-dione] |  |  | 
> 32 µg/mL | > 32 µg/mL | > 32 µg/mL | 4 to 32 µg/mL (≈ 6.37 to 51 µM) | 4 to 32 µg/mL (≈ 6.37 to 51 µM) | < 4 µg/mL |  |  |  | COCC(C)N1CC([C@@H]2COC(=O)C(C)(C)C(=O)[C@H](C)[C@@H](O[C@@H]3O[C@H](C)C[C@H](N(C)C)[C@H]3O)[C@](C)(OC)C[C@@H](C)CN2C)C1 (stereo partly drawn) [Compound 32, (3R,6R,8R,9R,10R)-9-(((2S,3R,4S,6R)-4-(dimethylamino)-3-hydroxy-6-methyltetrahydro-2H-pyran-2-yl)oxy)-8-methoxy-3-(1-(1-methoxypropan-2-yl)azetidin-3-yl)-4,6,8,10,12,12-hexamethyl-1-oxa-4-azacyclotridecane-11,13-dione] |  |  | 
4 to 32 µg/mL (≈ 6.15 to 49.2 µM) | > 32 µg/mL | > 32 µg/mL | 4 to 32 µg/mL (≈ 6.15 to 49.2 µM) | > 32 µg/mL | 4 to 32 µg/mL (≈ 6.15 to 49.2 µM) |  |  |  | CO[C@]1(C)C[C@@H](C)CN(C)[C@H](C2CN(Cc3cc(C)on3)C2)COC(=O)C(C)(C)C(=O)[C@H](C)[C@H]1O[C@@H]1O[C@H](C)C[C@H](N(C)C)[C@H]1O [Compound 132, (3R,6R,8R,9R,10R)-9-(((2S,3R,4S,6R)-4-(dimethylamino)-3-hydroxy-6-methyltetrahydro-2H-pyran-2-yl)oxy)-8-methoxy-4,6,8,10,12,12-hexamethyl-3-(1-((5-methylisoxazol-3-yl)methyl)azetidin-3-yl)-1-oxa-4-azacyclotridecane-11,13-dione] |  |  | 
> 32 µg/mL | > 32 µg/mL | > 32 µg/mL | 4 to 32 µg/mL (≈ 5.64 to 45.1 µM) | > 32 µg/mL | 4 to 32 µg/mL (≈ 5.64 to 45.1 µM) |  |  |  | CO[C@]1(C)C[C@@H](C)CN(C)[C@H](C2CN(C(=O)CCCN(C)CC3CC3)C2)COC(=O)C(C)(C)C(=O)[C@H](C)[C@H]1O[C@@H]1O[C@H](C)C[C@H](N(C)C)[C@H]1O [Compound 61, (3R,6R,8R,9R,10R)-3-(1-(4-((cyclopropylmethyl)(methyl)amino)butanoyl)azetidin-3-yl)-9-(((2S,3R,4S,6R)-4-(dimethylamino)-3-hydroxy-6-methyltetrahydro-2H-pyran-2-yl)oxy)-8-methoxy-4,6,8,10,12,12-hexamethyl-1-oxa-4-azacyclotridecane-11,13-dione] |  |  | 
> 32 µg/mL | > 32 µg/mL | > 32 µg/mL | < 4 µg/mL | 4 to 32 µg/mL (≈ 5.99 to 47.9 µM) | < 4 µg/mL |  |  |  | CO[C@]1(C)C[C@@H](C)CN(C)[C@H]([C@H]2C[C@@H](N(C)CC3CCCO3)C2)COC(=O)C(C)(C)C(=O)[C@H](C)[C@H]1O[C@@H]1O[C@H](C)C[C@H](N(C)C)[C@H]1O (stereo partly drawn) [Compound 31, (3R,6R,8R,9R,10R)-9-(((2S,3R,4S,6R)-4-(dimethylamino)-3-hydroxy-6-methyltetrahydro-2H-pyran-2-yl)oxy)-8-methoxy-4,6,8,10,12,12-hexamethyl-3-((1s,3S)-3-(methyl((tetrahydrofuran-2-yl)methyl)amino)cyclobutyl)-1-oxa-4-azacyclotridecane-11,13-dione] |  |  | 
4 to 32 µg/mL (≈ 6.17 to 49.4 µM) | > 32 µg/mL | > 32 µg/mL | 4 to 32 µg/mL (≈ 6.17 to 49.4 µM) | > 32 µg/mL | 4 to 32 µg/mL (≈ 6.17 to 49.4 µM) |  |  |  | CO[C@]1(C)C[C@@H](C)CN(C)[C@H](C2CN(Cc3cncnc3)C2)COC(=O)C(C)(C)C(=O)[C@H](C)[C@H]1O[C@@H]1O[C@H](C)C[C@H](N(C)C)[C@H]1O [Compound 177, (3R,6R,8R,9R,10R)-9-(((2S,3R,4S,6R)-4-(dimethylamino)-3-hydroxy-6-methyltetrahydro-2H-pyran-2-yl)oxy)-8-methoxy-4,6,8,10,12,12-hexamethyl-3-(1-(pyrimidin-5-ylmethyl)azetidin-3-yl)-1-oxa-4-azacyclotridecane-11,13-dione] |  |  | 
4 to 32 µg/mL (≈ 6.54 to 52.3 µM) | > 32 µg/mL | > 32 µg/mL | < 4 µg/mL | < 4 µg/mL | 4 to 32 µg/mL (≈ 6.54 to 52.3 µM) |  |  |  | CCN(C)[C@H]1C[C@H]([C@@H]2COC(=O)C(C)(C)C(=O)[C@H](C)[C@@H](O[C@@H]3O[C@H](C)C[C@H](N(C)C)[C@H]3O)[C@](C)(OC)C[C@@H](C)CN2C)C1 [Compound 71, (3R,6R,8R,9R,10R)-9-(((2S,3R,4S,6R)-4-(dimethylamino)-3-hydroxy-6-methyltetrahydro-2H-pyran-2-yl)oxy)-3-((1r,3R)-3-(ethyl(methyl)amino)cyclobutyl)-8-methoxy-4,6,8,10,12,12-hexamethyl-1-oxa-4-azacyclotridecane-11,13-dione] |  |  | 
 |  |  |  |  |  | + (values greater than 32 mg/L) | + (values greater than 32 mg/L) | + (values greater than 32 mg/L) | CO[C@]1(C)C[C@@H](C)CN(C)[C@H](C2CC(N(C)CC(C)C)C2)COC(=O)C(C)(C)C(=O)[C@H](C)[C@H]1O[C@@H]1O[C@H](C)C[C@H](N(C)C)[C@H]1O (stereo partly drawn) [Compound 187, (3R,6R,8R,9R,10R)-9-(((2S,3R,4S,6R)-4-(dimethylamino)-3-hydroxy-6-methyltetrahydro-2H-pyran-2-yl)oxy)-3-((1S,3S)-3-(isobutyl(methyl)amino)cyclobutyl)-8-methoxy-4,6,8,10,12,12-hexamethyl-1-oxa-4-azacyclotridecane-11,13-dione] | +++ (values less than or equal to 4 mg/L) | ++ (values of greater than 4 mg/L and less than or equal to 32 mg/L) | +++ (values less than or equal to 4 mg/L)
4 to 32 µg/mL (≈ 6.39 to 51.1 µM) | > 32 µg/mL | > 32 µg/mL | < 4 µg/mL | 4 to 32 µg/mL (≈ 6.39 to 51.1 µM) | < 4 µg/mL |  |  |  | CO[C@]1(C)C[C@@H](C)CN(C)[C@H](C2CN(CC(C)(C)C)C2)COC(=O)C(C)(C)C(=O)[C@H](C)[C@H]1O[C@@H]1O[C@H](C)C[C@H](N(C)C)[C@H]1O [Compound 114, (3R,6R,8R,9R,10R)-9-(((2S,3R,4S,6R)-4-(dimethylamino)-3-hydroxy-6-methyltetrahydro-2H-pyran-2-yl)oxy)-8-methoxy-4,6,8,10,12,12-hexamethyl-3-(1-neopentylazetidin-3-yl)-1-oxa-4-azacyclotridecane-11,13-dione] |  |  | 
4 to 32 µg/mL (≈ 6.11 to 48.9 µM) | > 32 µg/mL | > 32 µg/mL | 4 to 32 µg/mL (≈ 6.11 to 48.9 µM) | 4 to 32 µg/mL (≈ 6.11 to 48.9 µM) | 4 to 32 µg/mL (≈ 6.11 to 48.9 µM) |  |  |  | CO[C@]1(C)C[C@@H](C)CN(C)[C@H](C2CN(C(=O)CCN(C)C)C2)COC(=O)C(C)(C)C(=O)[C@H](C)[C@H]1O[C@@H]1O[C@H](C)C[C@H](N(C)C)[C@H]1O [Compound 50, (3R,6R,8R,9R,10R)-9-(((2S,3R,4S,6R)-4-(dimethylamino)-3-hydroxy-6-methyltetrahydro-2H-pyran-2-yl)oxy)-3-(1-(3-(dimethylamino)propanoyl)azetidin-3-yl)-8-methoxy-4,6,8,10,12,12-hexamethyl-1-oxa-4-azacyclotridecane-11,13-dione] |  |  | 
> 32 µg/mL | > 32 µg/mL | > 32 µg/mL | > 32 µg/mL | 4 to 32 µg/mL (≈ 5.86 to 46.9 µM) | 4 to 32 µg/mL (≈ 5.86 to 46.9 µM) |  |  |  | CCN(C)CCCC(=O)N1CC([C@@H]2COC(=O)C(C)(C)C(=O)[C@H](C)[C@@H](O[C@@H]3O[C@H](C)C[C@H](N(C)C)[C@H]3O)[C@](C)(OC)C[C@@H](C)CN2C)C1 [Compound 135, (3R,6R,8R,9R,10R)-9-(((2S,3R,4S,6R)-4-(dimethylamino)-3-hydroxy-6-methyltetrahydro-2H-pyran-2-yl)oxy)-3-(1-(4-(ethyl(methyl)amino)butanoyl)azetidin-3-yl)-8-methoxy-4,6,8,10,12,12-hexamethyl-1-oxa-4-azacyclotridecane-11,13-dione] |  |  | 
4 to 32 µg/mL (≈ 6.25 to 50 µM) | > 32 µg/mL | > 32 µg/mL | 4 to 32 µg/mL (≈ 6.25 to 50 µM) | 4 to 32 µg/mL (≈ 6.25 to 50 µM) | < 4 µg/mL |  |  |  | CO[C@]1(C)C[C@@H](C)CN(C)[C@H](C2CN(CC3CCOC3)C2)COC(=O)C(C)(C)C(=O)[C@H](C)[C@H]1O[C@@H]1O[C@H](C)C[C@H](N(C)C)[C@H]1O (stereo partly drawn) [Compound 127, (3R,6R,8R,9R,10R)-9-(((2S,3R,4S,6R)-4-(dimethylamino)-3-hydroxy-6-methyltetrahydro-2H-pyran-2-yl)oxy)-8-methoxy-4,6,8,10,12,12-hexamethyl-3-(1-((tetrahydrofuran-3-yl)methyl)azetidin-3-yl)-1-oxa-4-azacyclotridecane-11,13-dione] |  |  | 
4 to 32 µg/mL (≈ 6.13 to 49 µM) | > 32 µg/mL | > 32 µg/mL | > 32 µg/mL | > 32 µg/mL | 4 to 32 µg/mL (≈ 6.13 to 49 µM) |  |  |  | CO[C@]1(C)C[C@@H](C)CN(C)[C@H](C2CN(C(=O)[C@@H]3CCNC3)C2)COC(=O)C(C)(C)C(=O)[C@H](C)[C@H]1O[C@@H]1O[C@H](C)C[C@H](N(C)C)[C@H]1O [Compound 22, (3R,6R,8R,9R,10R)-9-(((2S,3R,4S,6R)-4-(dimethylamino)-3-hydroxy-6-methyltetrahydro-2H-pyran-2-yl)oxy)-8-methoxy-4,6,8,10,12,12-hexamethyl-3-(1-((R)-pyrrolidine-3-carbonyl)azetidin-3-yl)-1-oxa-4-azacyclotridecane-11,13-dione] |  |  | 

Reference: patent publication US20220177508A1, “C10-Cyclic Substituted 13-Membered Macrolides and Uses Thereof” (Zikani Therapeutics, Inc., priority 2018, published 2022)
